Test results: patent US7071376B2, “Genes encoding p-coumarate 3-hydroxylase (C3H) and methods of use” (Purdue Research Foundation, priority 2000, dated 2006)
Like-named read-outs stand apart in the source and are kept apart here.

Tests used:
[1] = target: T1, C3H polypeptide (CYP98A3) (Arabidopsis thaliana, UniProt O22203); experiment: in vitro C3H assay with microsomes from yeast expressing CYP98A3
T1 sequence (O22203 1-508): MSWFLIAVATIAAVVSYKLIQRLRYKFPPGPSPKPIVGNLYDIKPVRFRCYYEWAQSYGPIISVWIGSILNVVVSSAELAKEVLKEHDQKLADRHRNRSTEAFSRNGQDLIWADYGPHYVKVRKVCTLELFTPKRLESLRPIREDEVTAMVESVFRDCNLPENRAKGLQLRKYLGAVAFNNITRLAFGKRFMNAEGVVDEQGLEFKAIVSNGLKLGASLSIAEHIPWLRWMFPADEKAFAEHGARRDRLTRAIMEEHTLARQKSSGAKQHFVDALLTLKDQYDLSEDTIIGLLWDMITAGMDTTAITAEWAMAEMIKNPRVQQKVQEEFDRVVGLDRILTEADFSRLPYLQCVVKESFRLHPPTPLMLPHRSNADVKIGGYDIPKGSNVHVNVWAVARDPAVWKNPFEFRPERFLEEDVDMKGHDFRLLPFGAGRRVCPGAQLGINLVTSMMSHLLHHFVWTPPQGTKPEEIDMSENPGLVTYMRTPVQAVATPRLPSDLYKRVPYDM
Method: For C3H assays, an NADPH regenerating system consisting of 1 mM NADP^+, 10 mM glucose-6-phosphate, and 1 unit glucose-6-phosphate dehydrogenase was pre-incubated at 30 C for 5 min to permit the generation of NADPH in the presence of one of the putative C3H substrates in a final volume of 400 μL of assay buffer. Assays were initiated by the addition of 100 μL of microsomes and were allowed to incubate for 60 min at 30C before being terminated by boiling. Assays were clarified by centrifugation for 20 min at 13,000 ×g, and were analyzed directly by HPLC on a Microsorb-MV C-18 column (Rainin, Woburn Mass.) using a gradient of solvent A (1.0% acetic acid in water) and solvent B (acetonitrile; 0 to 10% B in 5 min, 10 to 25% B in 25 min; flow rate 1 mL min^−1). C3H reaction products were quantified using UV detection (caffeic acid, 322 nm; caffeyl aldehyde, 340 nm; caffeic acid methyl ester, 324 nm). Assays conducted using microsomes isolated from yeast transformed with pYeDP60 served as negative controls. The apparent Km for p-coumarate methyl ester was determined using triplicate assays analyzed by the Eadie-Hofstee method(Cornish-Bowden, 1995).
To experimentally address these issues, C3H-containing microsomes were prepared for use in in vitro assays of enzymatic activity.

F5H = target: T2, F5H (Arabidopsis thaliana, UniProt Q42600); details: cited from earlier work
T2 construct: host or cells: yeast
T2 sequence (Q42600 1-520): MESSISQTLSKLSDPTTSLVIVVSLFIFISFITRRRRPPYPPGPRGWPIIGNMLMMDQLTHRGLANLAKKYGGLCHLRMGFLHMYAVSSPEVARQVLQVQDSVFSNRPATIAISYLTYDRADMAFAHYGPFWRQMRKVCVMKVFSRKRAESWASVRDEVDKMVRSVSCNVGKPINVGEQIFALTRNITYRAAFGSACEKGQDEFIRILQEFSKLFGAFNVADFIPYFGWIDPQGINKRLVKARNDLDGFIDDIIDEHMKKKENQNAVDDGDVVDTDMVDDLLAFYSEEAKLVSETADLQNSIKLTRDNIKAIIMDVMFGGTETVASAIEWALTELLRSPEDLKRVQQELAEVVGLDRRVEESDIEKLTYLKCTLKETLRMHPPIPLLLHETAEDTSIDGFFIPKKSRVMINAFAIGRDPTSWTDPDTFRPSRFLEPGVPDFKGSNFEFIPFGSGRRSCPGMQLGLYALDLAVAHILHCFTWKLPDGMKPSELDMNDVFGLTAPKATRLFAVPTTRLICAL

[2] = target: T1, C3H polypeptide (CYP98A3)
Method: WAT11 cells were transformed with pYeDP60, pYeDP60-REF8, and pYeDP60-ref8 (Gietz et al., 1992), cultured and then induced with galactose as described previously (Urban et al., 1994). For in vivo measurements of enzyme activity, cells were grown in media supplemented with 5 mM p-coumaric acid. At the end of the incubation period the medium was extracted with ethylacetate, and analyzed by HPLC as described above.
Finally, WAT11 yeast carrying the control vector and the YeDP60-REF8 vector were assayed for C3H polypeptide activity in vivo by adding p-coumarate directly to the medium of galactose-induced yeast cultures.

[3] = yeast microsomes, NADPH regenerating system, 60 min, 30 C, HPLC

With `CC(C)(COP(=O)(O)OP(=O)(O)OC[C@H]1O[C@@H](n2cnc3c(N)ncnc32)[C@H](O)[C@@H]1OP(=O)(O)O)[C@@H](O)C(=O)NCCC(=O)NCCSC(=O)/C=C/c1ccc(O)cc1` [p-coumaroyl CoA] the “activity of C3H toward substrate” value [1, 3] was “no activity”.
In the case of `O=C/C=C/c1ccc(O)cc1` [p-coumaraldehyde], the “activity of C3H toward substrate” value [1, 3] is reported as “Levels of activity comparable to those seen with p-coumarate”.
For `COc1cc(/C=C/C(=O)O)ccc1O` [ferulate], the “activity of C3H toward substrate” value [1, 3] is listed as “No activity” and the Km (F5H; ferulate hydroxylation by F5H) is listed as 1000 µM.
In the case of `O=C(/C=C/c1ccc(O)cc1)O[C@@H]1O[C@H](CO)[C@@H](O)[C@H](O)[C@H]1O` [1-O-p-coumaroyl—D-glucose], the “activity of C3H toward substrate” value [1, 3] is reported as “no activity”.
For `COc1cc(/C=C/CO)ccc1O` [coniferyl alcohol], the Vmax (F5H; substrate of F5H) is listed as 6 pKat mg^−1 and the Km (F5H; substrate of F5H, read-out: Km) is listed as 3 µM.
For `COc1cc(/C=C/C=O)ccc1O` [coniferaldehyde], the Vmax (F5H; substrate of F5H) is listed as 5 pKat mg^−1 and the Km (F5H; substrate of F5H, read-out: Km) is listed as 1 µM.
For `COC(=O)/C=C/c1ccc(O)cc1` [p-coumaroyl methyl ester], the “activity of C3H toward substrate” value [1] was “much higher levels of activity” and the Km ([1]; read-out: apparent Km, substrate of C3H, yeast microsomes, triplicate assays, Eadie-Hofstee method) was 2500 ± 100 µM.
With `O=C(O)/C=C/c1ccc(O)cc1` [p-coumarate] the “activity of C3H toward substrate” value [1] was “so low that it precluded detailed kinetic analysis” and the “hydroxylation of substrate added to yeast medium (product caffeic acid)” value [2] was “capable of hydroxylating”.
For `OCC=Cc1ccc(O)cc1` [p-hydroxycinnamyl alcohol], the “activity of C3H toward substrate” value [1, 3] was “no activity”.
